Experimental data: US20130023485A1, “PARENTERAL FORMULATIONS OF PEPTIDES FOR THE TREATMENT OF SYSTEMATIC LUPUS ERYTHEMATOSUS” (Teva Pharmaceutical Industries, Ltd., priority 2003, published 2013)
Like-named read-outs stand apart in the source and are kept apart here.

Legend:
[1] = tested on: antibodies in sera of SLE patients and healthy controls; assay: ELISA of sera for antibodies binding plate-coated peptides or mAb; design: species or system human; settings: plates coated with 10 μg/ml; FIG. 7
Experimental: Human SLE patients (32 patients) were bled and their sera were tested by ELISA for their ability to bind the peptides Ia, IIa and 111a, a control peptide p195-212 (a myasthogenic peptide described in PCT publication No. WO 94/00148) or mAb 5G12.
Detection of the antibodies was conducted on plates that were coated with 10 μg/ml of peptides Ia, IIa, IIIa, p195-212 or mAb 5G12, in PBS for 2 hr, washed and blocked with 1% ovalbumin in PBS for an additional 2 hr. ELISA was continued as described after blockage in Example 2 of PCT International Publication No. 96/30057, using goat anti-human IgG polyclonal antibody conjugated to peroxidase.

PBL from SLE patients = assay: Proliferation of PBL in presence of mAb or peptides (3H-thymidine); assay type: cell-based, human
Experimental: (§1) Peripheral blood lymphocytes (PBL) were isolated from the blood of SLE patients or healthy controls using ficol gradient. Thereafter, the PBL were incubated in the presence of different concentrations of the peptides Ia, IIa or IIIa, or the human 16/6 Id mAb for 24 hr, when a sample was taken for IL-2 measurement. The assay was continued for a total of 7 days, and ^3H-thymidine was added for the last 16 hr. Proliferation was detected by reading the amount of radioactivity incorporated into the DNA of the cells.
(§2) As is seen in Table 14, a lower proportion of the PBL taken from SLE patients reacted to the peptides or to the 16/6 Id mAb, when compared to the healthy controls. The results are expressed in percentage of responder (34% in the first line) and the actual number of patients (11 out of 32: 11/32).

[2] = tested on: PBL from healthy controls; assay: as above; assay type: cell-based, human
Experimental: as §1, §2

PBL of SLE patients = assay: Production of IL-2 by PBL in presence of mAb or peptides (CTLD cells); assay type: cell-based, human
Experimental: (§3) PBL were isolated from blood of SLE patients or healthy controls using ficol gradient, and were incubated as in Example 11. A sample of 50 μl was removed 24 hr after the assay was started, and incubated in the presence of IL-2 sensitive cells (CTLD) for 24 hr, after which ^3H-thymidine was added for 16 hr, and the plates were harvested and counted on a beta counter.

PBL of healthy controls = assay: as above; assay type: cell-based, human
Experimental: as §3

[3] = tested on: PBL of SLE patients stimulated with human 16/6Id mAb; assay type: cell-based; settings: for inhibition of proliferative responses to human 16/6Id mAb: PBL of one SLE patient; for Percent Inhibition of proliferation: highest positive inhibition, peptide 50 or 100 μg/well
Experimental: Cells were then harvested and radioactivity was counted using a β-counter. Results were expressed as mean counts per minute (cpm) of triplicate cultures. Stimulation indices (the ratio of mean cpm at the optimal concentration of 16/6Id to mean cpm without 16/6Id) were then calculated. A stimulation index (SI)≧2 was considered positive. […] Inhibition of above 50% of the proliferative capacity was considered positive. The Table represents the highest positive inhibition capacity for each peptide. […] Both peptides inhibited the proliferation of PBL of 18/19(95%) of responders tested. It can also be seen in the Table that the magnitudes of inhibitions were similar for both peptides. Thus, it can be concluded that peptides based on CDR1 and CDR3 of the human 16/6Id mAb are efficient inhibitors of the proliferation of PBL of SLE patients to the human 16/6Id mAb.

[4] = tested on: PBL of SLE patients stimulated with phytohemagglutinin (PHA); assay: Proliferation of PBL stimulated with mitogen PHA; assay type: cell-based, human; settings: PHA 2 μg/ml; PBL of one SLE patient, FIG. 9
Experimental: To this end the peptides hCDR1 or hCDR3 were added to cultures of PBL of SLE patients that were stimulated with the mitogen phytohemagglutinin (PHA, 2 μg/ml).

[5] = tested on: TGF-β secretion by PBL of SLE patients; assay: Up-regulation of TGF-β secretion by PBL stimulated with human 16/6Id mAb (ELISA); assay type: cell-based
Experimental: For this purpose, supernatants were removed from cultures of PBL of various SLE patients following 48 hours incubation with the human 16/6Id mAb in the absence or presence of the peptides hCDR1 or hCDR3. TGF-β was determined by ELISA according to the manufacturer's instructions. Briefly, Maxisorb plates (Nunc) were coated with recombinant human TGFβsRII/Fc chimera (R & D Systems) diluted in PBS (100 ng/ml). After blocking, cell supernatants were added. After 18 hours incubation the detecting biotinylated anti-human TGF-β antibody (R & D Systems) was added. The substrate solution used was the TMB Colour Reagent (Helix Diagnostics) and enzyme activity was evaluated by the MRX ELISA reader using the 570 nm and 630 nm filters.

[6] = tested on: IL-2 secretion by PBL of SLE patients; assay: Inhibition of IL-2 secretion by PBL stimulated with human 16/6Id mAb (CTLL line); assay type: cell-based
Experimental: It was of interest to find out whether the hCDR peptides are capable of inhibiting IL-2 secretion by PBL of SLE patients following stimulation with the human 16/6Id mAb. […] To this end, PBL of SLE patients were incubated with the human 16/6Id mAb in the absence or presence of the peptides hCDR1 or hCDR3. Supernatants of the cultures were collected following 48 hours of incubation. Assays to determine levels of IL-2 in the supernatants were performed using the CTLL IL-2 dependent line. Briefly, cells of the CTLL line (2×10^4/well) were incubated in the presence of the different supernatants for 24 hours, followed by the addition of ^3H-thymidine for an additional 18-hour incubation period. Cells were then harvested and radioactivity counted using a β-counter. Results were calculated based on recombinant human IL-2 used as a standard. The ability of the peptides to inhibit the IL-2 secretion of PBL of 23 responders stimulated by the human 16/6 Id was tested. […] Inhibition of proliferative responses of PBL directly correlated with IL-2 inhibition by the CDR-based peptides.

## EINPSTGGTTYNQKFKAKAT (EINPSTGGTTYNQKFKAKAT) [pep IIa, based on CDR2 of the VH chain of mAb 5G12]
[1]
  levels of serum antibodies binding the coated antigen, SLE patients versus healthy controls: significantly higher levels
PBL from SLE patients
  number of responders / tested (proliferation): 3/32
  percentage of responders (proliferation): 9%
[2]
  number of responders / tested (proliferation): 7/25
  percentage of responders (proliferation): 28%
PBL of SLE patients
  number of responders / tested (IL-2 production): 3/32
PBL of healthy controls
  number of responders / tested (IL-2 production): 8/25
  percentage of responders (IL-2 production): 32%

## TGYYMQWVKQSPEKSLEWIG [pep Ia]
[1]
  levels of serum antibodies binding the coated antigen, SLE patients versus healthy controls: significantly higher levels
PBL from SLE patients
  number of responders / tested (proliferation): 7/32
  percentage of responders (proliferation): 21%
[2]
  number of responders / tested (proliferation): 11/25
  percentage of responders (proliferation): 44%
PBL of SLE patients
  number of responders / tested (IL-2 production): 5/32
  percentage of responders (IL-2 production): 16%
PBL of healthy controls
  number of responders / tested (IL-2 production): 14/25
  percentage of responders (IL-2 production): 56%

## YYCARFLWEPYAMDYWGQGS (YYCARFLWEPYAMDYWGQGS) [pep IIIa, based on CDR3 of the VH chain of mAb 5G12]
[3]; FIG. 10
  inhibition of proliferative responses to human 16/6Id mAb: did not inhibit
[1]
  levels of serum antibodies binding the coated antigen, SLE patients versus healthy controls: significantly higher levels
PBL from SLE patients
  number of responders / tested (proliferation): 10/32
  percentage of responders (proliferation): 31%
[2]
  number of responders / tested (proliferation): 15/25
  percentage of responders (proliferation): 60%
PBL of SLE patients
  number of responders / tested (IL-2 production): 5/32
  percentage of responders (IL-2 production): 16%
PBL of healthy controls
  number of responders / tested (IL-2 production): 16/25
  percentage of responders (IL-2 production): 64%

## YYCARGLLRGGWNDVDYYGMDV [hCDR3, peptide based on CDR3 of the human 16/6Id mAb]
[3]; FIG. 10
  inhibition of proliferative responses to human 16/6Id mAb: inhibited efficiently
[3]; FIG. 11
  inhibition of proliferative responses to human 16/6Id mAb: did inhibit efficiently
[3]; SLE patient Number 1
  Percent Inhibition of proliferation: <50%
[3]; SLE patient Number 2
  Percent Inhibition of proliferation: 75%
[3]; SLE patient Number 3
  Percent Inhibition of proliferation: <50%
[3]; SLE patient Number 4
  Percent Inhibition of proliferation: <50%
[3]; SLE patient Number 5
  Percent Inhibition of proliferation: 87.5%
[3]; SLE patient Number 6
  Percent Inhibition of proliferation: 80%
[3]; SLE patient Number 7
  Percent Inhibition of proliferation: 70.4%
[3]; SLE patient Number 8
  Percent Inhibition of proliferation: 56%
[3]; SLE patient Number 9
  Percent Inhibition of proliferation: 65%
[3]; SLE patient Number 10
  Percent Inhibition of proliferation: 71.8%
[3]; SLE patient Number 11
  Percent Inhibition of proliferation: 72%
[3]; SLE patient Number 12
  Percent Inhibition of proliferation: 86%
[3]; SLE patient Number 13
  Percent Inhibition of proliferation: 64%
[3]; SLE patient Number 14
  Percent Inhibition of proliferation: 74%
[3]; SLE patient Number 15
  Percent Inhibition of proliferation: 69%
[3]; SLE patient Number 16
  Percent Inhibition of proliferation: 68%
[3]; SLE patient Number 17
  Percent Inhibition of proliferation: 77.8%
[3]; SLE patient Number 18
  Percent Inhibition of proliferation: <50%
[3]; SLE patient Number 19
  Percent Inhibition of proliferation: 60.8%
[3]; of the 19 responders tested
  responders whose PBL proliferation was inhibited (above 50%): 78.9%
[3]; over patients with positive inhibition (above 50%)
  Percent Inhibition of proliferation, Mean ± SD: 71.82 ± 8.44%
[4]
  inhibition of proliferative responses to mitogen PHA: could not inhibit
[5]; PBL of SLE patients, 48 hours
  Up-Regulation of TGF-β % (patients): 100 (19/19) %
[5]; PBL of one representative SLE patient, FIG. 13
  secretion of TGF-β: significant up-regulation
[5]; percent secretion above that in the presence of 16/6 Id alone (= 100%)
  Maximum Up-regulation %: 338 ± 242%
[6]; 23 responders
  patients whose PBL IL-2 secretion was inhibited / tested: 19/23
[6]; IL-2 secretion with 16/6 Id alone = 100%
  Maximum inhibition %: 78 ± 34%
[6]; PBL of 23 responders
  Inhibitory Activity* % (patients with inhibition of 50% or more): 83 (19/23) %
[6]; PBL of one SLE patient, FIG. 12
  inhibition of IL-2 secretion: 100%
